According to patent US20250353891A1 (MEDIMMUNE LIMITED, priority 2022, published 2025):
Starred links: 1 amine or outer side, 2 acyl side, 3 side chain; linkers in the order of their positions; H or OH if unused. Non-standard residues stand in square brackets, D forms with d. Residues, ends and D or L forms follow the SMILES beside them. Groups on a side chain read outwards from the residue. *: point of attachment. C20 diacid = O=C(O)CCCCCCCCCCCCCCCCCCC(=O)*; C18 diacid = O=C(O)CCCCCCCCCCCCCCCCC(=O)*; γGlu = O=C(O)[C@H](CCC(=O)[*:2])N[*:1]; αMeF = C[C@](N)(Cc1ccccc1)C(=O)O; PEG4 = NCCOCCOCCOCCOCCC(=O)O; AEEA = NCCOCCOCC(=O)O; Aib = CC(C)(N)C(=O)O

Key:
[1] = molecular target: human GLP-1 receptor (hGLP-1R) (Homo sapiens, UniProt P43220); experiment: cAMP production (HTRF) in CHO cells expressing hGLP-1R; assay type: cell-based; parameters: expressed in transfected cells; conditions: for EC50: Table 7, peptides modified at position 20, cAMP in CHO hGLP-1R cells, geometric mean, read-out: hGLP-1R EC50; for % Relative Potency Ratio: Table 7, % GLP-1R activity relative to GLP-1 / % GlucR activity relative to glucagon
Chain of human GLP-1 receptor (hGLP-1R) (P43220 24-463): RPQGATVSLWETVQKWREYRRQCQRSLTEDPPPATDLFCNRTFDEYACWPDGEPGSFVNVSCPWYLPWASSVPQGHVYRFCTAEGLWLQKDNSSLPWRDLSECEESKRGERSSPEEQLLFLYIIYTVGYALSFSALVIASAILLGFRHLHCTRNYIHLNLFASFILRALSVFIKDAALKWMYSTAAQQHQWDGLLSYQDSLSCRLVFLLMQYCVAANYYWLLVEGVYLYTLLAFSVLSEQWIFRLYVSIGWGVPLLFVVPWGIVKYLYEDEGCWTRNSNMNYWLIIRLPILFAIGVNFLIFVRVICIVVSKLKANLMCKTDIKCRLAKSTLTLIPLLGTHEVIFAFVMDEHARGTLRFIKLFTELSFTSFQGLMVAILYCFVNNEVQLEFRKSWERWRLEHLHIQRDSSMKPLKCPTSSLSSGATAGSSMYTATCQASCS
Outline: (§1)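 Read-out: HTRF cAMP (anti-cAMP cryptate donor, cAMP-d2 acceptor in conjugate/lysis buffer), converted to % Delta F and fitted by 4-parameter logistic for EC50. Cell densities were 1×10^5 cells/mL (hGLP-1R) or 2×10^5 cells/mL (hGCGR). Stimulation lasted 30 min at room temperature.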

[2] = molecular target: human glucagon receptor (hGCGR) (Homo sapiens, UniProt P47871); experiment: cAMP production (HTRF) in CHO cells expressing hGCGR; assay type: cell-based; parameters: expressed in transfected cells; conditions: Table 7, peptides modified at position 20; cAMP in CHO hGCGR cells; geometric mean; read-out: hGluc-R EC50
Chain of human glucagon receptor (hGCGR) (P47871 26-477): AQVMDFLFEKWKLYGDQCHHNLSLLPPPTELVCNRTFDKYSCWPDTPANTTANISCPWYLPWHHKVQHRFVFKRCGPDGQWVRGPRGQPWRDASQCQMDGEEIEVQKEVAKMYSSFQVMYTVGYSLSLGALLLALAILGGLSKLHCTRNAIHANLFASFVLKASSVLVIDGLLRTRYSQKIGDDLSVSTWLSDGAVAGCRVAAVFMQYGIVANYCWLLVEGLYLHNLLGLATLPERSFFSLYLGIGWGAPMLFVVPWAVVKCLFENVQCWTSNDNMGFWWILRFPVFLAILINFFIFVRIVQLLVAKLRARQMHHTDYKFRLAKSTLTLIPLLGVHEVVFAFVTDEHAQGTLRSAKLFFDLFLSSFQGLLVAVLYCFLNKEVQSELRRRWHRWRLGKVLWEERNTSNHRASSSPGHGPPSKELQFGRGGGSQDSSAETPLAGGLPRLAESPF
Outline: as §1

With `CC[C@H](C)[C@H](NC(=O)C(C)(C)NC(=O)[C@H](CCC(N)=O)NC(=O)[C@@H](NC(=O)[C@](C)(Cc1ccccc1)NC(=O)[C@H](CC(=O)O)NC(=O)[C@H](CCCCNC(=O)COCCOCCNC(=O)CC[C@H](NC(=O)COCCOCCNC(=O)CCCCCCCCCCCCCCCCCCC(=O)O)C(=O)O)NC(=O)[C@H](C)NC(=O)[C@H](C)NC(=O)[C@H](CCCNC(=N)N)NC(=O)[C@H](CO)NC(=O)[C@H](CC(=O)O)NC(=O)[C@H](CC(C)C)NC(=O)[C@](C)(Cc1ccccc1)NC(=O)[C@H](CCCCN)NC(=O)[C@H](CO)NC(=O)[C@@H](NC(=O)[C@H](CC(=O)O)NC(=O)[C@H](CO)NC(=O)[C@@H](NC(=O)[C@](C)(Cc1ccccc1)NC(=O)[C@H](CO)NC(=O)CNC(=O)[C@H](Cc1c[nH]cn1)NC(=O)C(C)(C)NC(=O)[C@@H](N)Cc1c[nH]cn1)[C@@H](C)O)C(C)C)C(C)C)C(=O)N[C@@H](C)C(=O)N[C@@H](CC(N)=O)C(=O)N[C@H](C(N)=O)[C@@H](C)O` [Peptide 265] (H-H[Aib]HGS[αMeF]TSDVSK[αMeF]LDSRAAK([AEEA-γGlu-AEEA-C20 diacid])D[αMeF]VQ[Aib]IANT-NH2) as the compound, how does the EC50 [1] read?
The EC50 was 0.0712 nM.

What about the “% Relative Potency Ratio” value [1] of the same compound?
Its value is 3.6.

And the EC50 [2]?
The EC50 was 0.131 nM.

For `CC[C@H](C)[C@H](NC(=O)C(C)(C)NC(=O)[C@H](CCC(N)=O)NC(=O)[C@@H](NC(=O)[C@](C)(Cc1ccccc1)NC(=O)[C@H](CC(=O)O)NC(=O)[C@H](CCCCNC(=O)COCCOCCNC(=O)CC[C@H](NC(=O)COCCOCCNC(=O)CC[C@H](NC(=O)CCCCCCCCCCCCCCCCCCC(=O)O)C(=O)O)C(=O)O)NC(=O)[C@H](C)NC(=O)[C@H](C)NC(=O)[C@H](CCCNC(=N)N)NC(=O)[C@H](CO)NC(=O)[C@H](CC(=O)O)NC(=O)[C@H](CC(C)C)NC(=O)[C@](C)(Cc1ccccc1)NC(=O)[C@H](CCCCN)NC(=O)[C@H](CO)NC(=O)[C@@H](NC(=O)[C@H](CC(=O)O)NC(=O)[C@H](CO)NC(=O)[C@@H](NC(=O)[C@](C)(Cc1ccccc1)NC(=O)[C@H](CO)NC(=O)CNC(=O)[C@H](Cc1c[nH]cn1)NC(=O)C(C)(C)NC(=O)[C@@H](N)Cc1c[nH]cn1)[C@@H](C)O)C(C)C)C(C)C)C(=O)N[C@@H](C)C(=O)N[C@@H](CC(N)=O)C(=O)N[C@H](C(N)=O)[C@@H](C)O` [Peptide 266] (H-H[Aib]HGS[αMeF]TSDVSK[αMeF]LDSRAAK([AEEA-γGlu-AEEA-γGlu-C20 diacid])D[αMeF]VQ[Aib]IANT-NH2), which EC50 [1] is on record?
The EC50 was 0.0665 nM.

What about the “% Relative Potency Ratio” value [1] of the same compound?
The value was 8.7.

What about the EC50 [2] of the same compound?
The EC50 was 0.293 nM.

For `CC[C@H](C)[C@H](NC(=O)C(C)(C)NC(=O)[C@H](CCC(N)=O)NC(=O)[C@@H](NC(=O)[C@](C)(Cc1ccccc1)NC(=O)[C@H](CC(=O)O)NC(=O)[C@H](CCCCNC(=O)CCOCCOCCOCCOCCNC(=O)CC[C@H](NC(=O)CCCCCCCCCCCCCCCCCCC(=O)O)C(=O)O)NC(=O)[C@H](C)NC(=O)[C@H](C)NC(=O)[C@H](CCCNC(=N)N)NC(=O)[C@H](CO)NC(=O)[C@H](CC(=O)O)NC(=O)[C@H](CC(C)C)NC(=O)[C@](C)(Cc1ccccc1)NC(=O)[C@H](CCCCN)NC(=O)[C@H](CO)NC(=O)[C@@H](NC(=O)[C@H](CC(=O)O)NC(=O)[C@H](CO)NC(=O)[C@@H](NC(=O)[C@](C)(Cc1ccccc1)NC(=O)[C@H](CO)NC(=O)CNC(=O)[C@H](Cc1c[nH]cn1)NC(=O)C(C)(C)NC(=O)[C@@H](N)Cc1c[nH]cn1)[C@@H](C)O)C(C)C)C(C)C)C(=O)N[C@@H](C)C(=O)N[C@@H](CC(N)=O)C(=O)N[C@H](C(N)=O)[C@@H](C)O` [Peptide 267] (H-H[Aib]HGS[αMeF]TSDVSK[αMeF]LDSRAAK([PEG4-γGlu-C20 diacid])D[αMeF]VQ[Aib]IANT-NH2), which EC50 [1] is on record?
Its EC50 is 0.0656 nM.

What about the “% Relative Potency Ratio” value [1] of the same compound?
The value was 3.9.

And the EC50 [2]?
Its EC50 is 0.128 nM.

Which results are given for `CC[C@H](C)[C@H](NC(=O)C(C)(C)NC(=O)[C@H](CCC(N)=O)NC(=O)[C@@H](NC(=O)[C@](C)(Cc1ccccc1)NC(=O)[C@H](CC(=O)O)NC(=O)[C@H](CCCCNC(=O)COCCOCCNC(=O)CC[C@H](NC(=O)CCCCCCCCCCCCCCCCCCC(=O)O)C(=O)O)NC(=O)[C@H](C)NC(=O)[C@H](C)NC(=O)[C@H](CCCNC(=N)N)NC(=O)[C@H](CO)NC(=O)[C@H](CC(=O)O)NC(=O)[C@H](CC(C)C)NC(=O)[C@](C)(Cc1ccccc1)NC(=O)[C@H](CCCCN)NC(=O)[C@H](CO)NC(=O)[C@@H](NC(=O)[C@H](CC(=O)O)NC(=O)[C@H](CO)NC(=O)[C@@H](NC(=O)[C@](C)(Cc1ccccc1)NC(=O)[C@H](CO)NC(=O)CNC(=O)[C@H](Cc1c[nH]cn1)NC(=O)C(C)(C)NC(=O)[C@@H](N)Cc1c[nH]cn1)[C@@H](C)O)C(C)C)C(C)C)C(=O)N[C@@H](C)C(=O)N[C@@H](CC(N)=O)C(=O)N[C@H](C(N)=O)[C@@H](C)O` [Peptide 268] (H-H[Aib]HGS[αMeF]TSDVSK[αMeF]LDSRAAK([AEEA-γGlu-C20 diacid])D[αMeF]VQ[Aib]IANT-NH2; N-terminus assumed)?
EC50 [1]: 0.0395 nM; % Relative Potency Ratio [1]: 1.5; EC50 [2]: 0.0293 nM

Which results are given for `CC[C@H](C)[C@H](NC(=O)C(C)(C)NC(=O)[C@H](CCC(N)=O)NC(=O)[C@@H](NC(=O)[C@](C)(Cc1ccccc1)NC(=O)[C@H](CC(=O)O)NC(=O)[C@H](CCCCNC(=O)CCOCCOCCOCCOCCNC(=O)CC[C@H](NC(=O)CC[C@H](NC(=O)CCCCCCCCCCCCCCCCCCC(=O)O)C(=O)O)C(=O)O)NC(=O)[C@H](C)NC(=O)[C@H](C)NC(=O)[C@H](CCCNC(=N)N)NC(=O)[C@H](CO)NC(=O)[C@H](CC(=O)O)NC(=O)[C@H](CC(C)C)NC(=O)[C@](C)(Cc1ccccc1)NC(=O)[C@H](CCCCN)NC(=O)[C@H](CO)NC(=O)[C@@H](NC(=O)[C@H](CC(=O)O)NC(=O)[C@H](CO)NC(=O)[C@@H](NC(=O)[C@](C)(Cc1ccccc1)NC(=O)[C@H](CO)NC(=O)CNC(=O)[C@H](Cc1c[nH]cn1)NC(=O)C(C)(C)NC(=O)[C@@H](N)Cc1c[nH]cn1)[C@@H](C)O)C(C)C)C(C)C)C(=O)N[C@@H](C)C(=O)N[C@@H](CC(N)=O)C(=O)N[C@H](C(N)=O)[C@@H](C)O` [Peptide 269] (H-H[Aib]HGS[αMeF]TSDVSK[αMeF]LDSRAAK([PEG4-γGlu-γGlu-C20 diacid])D[αMeF]VQ[Aib]IANT-NH2; N-terminus assumed)?
EC50 [1]: 0.052 nM; % Relative Potency Ratio [1]: 10.3; EC50 [2]: 0.271 nM

With `CC[C@H](C)[C@H](NC(=O)C(C)(C)NC(=O)[C@H](CCC(N)=O)NC(=O)[C@@H](NC(=O)[C@](C)(Cc1ccccc1)NC(=O)[C@H](CC(=O)O)NC(=O)[C@H](CCCCNC(=O)CC[C@H](NC(=O)CC[C@H](NC(=O)CCCCCCCCCCCCCCCCC(=O)O)C(=O)O)C(=O)O)NC(=O)[C@H](C)NC(=O)[C@H](C)NC(=O)[C@H](CCCNC(=N)N)NC(=O)[C@H](CO)NC(=O)[C@H](CC(=O)O)NC(=O)[C@H](CC(C)C)NC(=O)[C@](C)(Cc1ccccc1)NC(=O)[C@H](CCCCN)NC(=O)[C@H](CO)NC(=O)[C@@H](NC(=O)[C@H](CC(=O)O)NC(=O)[C@H](CO)NC(=O)[C@@H](NC(=O)[C@](C)(Cc1ccccc1)NC(=O)[C@H](CO)NC(=O)CNC(=O)[C@H](Cc1c[nH]cn1)NC(=O)C(C)(C)NC(=O)[C@@H](N)Cc1c[nH]cn1)[C@@H](C)O)C(C)C)C(C)C)C(=O)N[C@@H](C)C(=O)N[C@@H](CC(N)=O)C(=O)N[C@H](C(N)=O)[C@@H](C)O` [Peptide 270] (H-H[Aib]HGS[αMeF]TSDVSK[αMeF]LDSRAAK([γGlu-γGlu-C18 diacid])D[αMeF]VQ[Aib]IANT-NH2) as the compound, how does the EC50 [1] read?
Its EC50 is 0.0244 nM.

What about the “% Relative Potency Ratio” value [1] of the same compound?
The value was 2.5.

And the EC50 [2]?
The EC50 was 0.0313 nM.
